Data as given in US20210238136A1, “AZETIDINE DERIVATIVE, AND PRODRUG THEREOF” (DAIICHI SANKYO COMPANY, LIMITED, priority 2018, published 2021).
Where a name gives a salt, the structure may show the parent alone.

System: mouse chronic GVH model
Experiment: Kidney disorder in mouse chronic GVH model, urine protein/creatinine ratio
Type: in vivo, mouse (BDF1 host, DBA2 donor)
Conditions: oral 1.5, 5, 15, or 50 mg/kg BID, Day 32
Protocol: FIG. 3 is a box plot graph showing the effect of the compound of Example 89 on renal disorder in mouse chronic GVH models. The compound of Example 89 was orally administered at 1.5, 5, 15, or 50 mg/kg, BID, and MMF was orally administered at 30 mg/kg, BID. […] The boxes in the graph represent box plots of the median and the quartile range for each group at N=12. The plots show the values of each individual. Both between the non-elicitation group (Normal group) and the Vehicle group, and between the Vehicle group and the MMF group were compared by the Wilcoxon test (non-parametric, two-group comparison). # means that the p-value is 0.05 or less, and $$ means that the p-value is 0.01 or less, respectively. The Vehicle group and the compound group of Example 89 were analyzed by the Shirley-Williams test (non-parametric, multiple comparisons with dose response). The groups in which the p-value is 0.01 or less and 0.001 or less are shown by ** and ***, respectively.
Effect of Test Substance on Kidney Disorder in Mouse Chronic GVH Model
A mouse chronic graft-versus-host (GVH) model was generated in accordance with a previous report (Via CS. Advances in lupus stemming from the parent-into-F1 model. Trends Immunol. 31, 236-45 (2010)). Splenocytes were prepared from euthanized donor mice (DBA2 mice), suspended in PBS without hemolysis of erythrocytes, and administered to host mice, BDF1 mice, from tail veins (1×10^8 cells/0.2 mL/mouse) at Day 0 and Day 4, twice. In the Normal group, 0.2 mL of PBS was administered in place of the cells. The test substance was crushed in an agate mortar, and then suspended in a 0.5% hydroxypropyl cellulose (HPC) solution to prepare a dosage solution. In the Vehicle group, 0.5% HPC was used as a dosage solution. To the host mice, the dosage solution was forcibly orally administered (0.2 mL/mouse) twice daily with a feeding needle from Day 4 (second cell transfer) to the end of the experiment. Urine was collected on Day 32 under free diet with a metabolic cage. Urine protein concentration was measured with a urine protein test kit (total protein kit microTP test wako, FUJIFILM Wako Pure Chemical Corporation, pyrogallol red method), and urine creatinine concentration was measured using a creatinine test kit (LabAssay™ creatinine, FUJIFILM Wako Pure Chemical Corporation, Jaffe method), and the ratio of urine protein to creatinine was calculated for each individual. […] For the difference between the Normal group and the Vehicle group, the Wilcoxon test (non-parametric, comparison between two groups) was performed, and for the difference between the Vehicle group and the test substance administration group, the analysis was performed by the Shirley-Williams test (non-parametric, multiple comparison with dose response).

| SMILES | effect on urine protein/creatinine ratio |
| --- | --- |
| CC(=O)O[C@@H](C)OC(=O)N[C@@H](Cc1cccc(S(=O)(=O)N2CC(Oc3cccc(F)c3)(c3ccccc3)C2)c1)C(=O)O [Example 89, (S)-2-((((R)-1-Acetoxyethoxy)carbonyl)amino)-3-(3-((3-(3-fluorophenoxy)-3-phenylazetidin-1-yl)sulfonyl)phenyl)propanoic acid] | suppressed the urine protein/creatinine ratio in a dose-dependent manner |

Same assay, conditions: oral, twice daily from Day 4, urine on Day 32, p-value of 0.05 or less relative to the Vehicle group

| SMILES | minimum effective dose / effective dose, urine protein/creatinine ratio |
| --- | --- |
| C[C@H](OC(=O)N[C@@H](Cc1cccc(S(=O)(=O)N2CC(Oc3cccc(F)c3)(c3ccccc3)C2)c1)C(=O)O)OC(=O)C(C)(C)C [Example 97] | 15 mg/kg, BID |
| CC(C)C(=O)O[C@@H](C)OC(=O)N[C@@H](Cc1cccc(S(=O)(=O)N2CC(Oc3ccc(F)cc3)(c3ccccc3)C2)c1)C(=O)O [Example 104, (S)-3-(3-((3-(4-Fluorophenoxy)-3-phenylazetidin-1-yl)sulfonyl)phenyl)-2-((((R)-1-(isobutyryloxy)ethoxy)carbonyl)amino)propanoic acid] | 15 mg/kg, BID |
| CC(=O)O[C@@H](C)OC(=O)N[C@@H](Cc1cccc(S(=O)(=O)N2CC(Oc3cccc(F)c3)(c3ccccc3)C2)c1)C(=O)O [Example 89, (S)-2-((((R)-1-Acetoxyethoxy)carbonyl)amino)-3-(3-((3-(3-fluorophenoxy)-3-phenylazetidin-1-yl)sulfonyl)phenyl)propanoic acid] | 15 mg/kg, BID |

System: activated T cells (CD4+ T cells from mouse spleen)
Experiment: 3H-thymidine uptake in activated T cells
Type: cell-based, mouse (C57BL/6J)
Conditions: T-cell; mouse spleen CD4+ T cells activated with Dynabeads Mouse T-Activator CD3/CD28; read-out: IC50 (3H-thymidine uptake, proliferation of activated T cells)
Protocol: Effect of Test Substance on ^3H-Thymidine Uptake in Activated T Cells
The effect of test substance on ^3H-thymidine uptake by activation was evaluated using T cells from mouse spleen. The spleen was removed from euthanized C57BL/6J mice, and finely sliced, then triturated on a cell strainer (40 μm mesh), and cells were collected by centrifugation. The collected splenocytes were treated with Cold lyser containing 0.17 M NH4Cl for 5 minutes to hemolytically remove red blood cells and then washed. The resulting cells were used as the splenocytes. From the splenocytes, CD4+ T cells were isolated using an EasySep Mouse CD4+ T cell isolation kit (STEMCELL Technologies Inc.). The CD4+ T cells were seeded into 96-well round-bottom plates. To the plates, test substance or Vehicle was added, and Dynabeads Mouse T-Activator CD3/CD28 (Thermo Fisher Scientific Inc.) was added, then the cells were cultured at 37° C. under 5% CO2. After 24 hours of culture, ^3H-Thymidine (PerkinElmer Inc.) diluted with medium was added to each well, then the cells were further cultured at 37° C. under 5% CO2 overnight. To measure ^3H-Thymidine uptake into the nuclei of the cells, the cells were collected into filter plates UniFilter-96 GF/B (PerkinElmer Inc.) using a FilterMate Universal Harvester (PerkinElmer Inc.). The filter plates were placed in a dryer and left still for 2 hours or more. Then, scintillation cocktail MicroScint-O (PerkinElmer Inc.) was added to the plates, and radioactivity was measured with TopCount NXT (PerkinElmer Inc.). With the radioactivity of the test substance-free group set as 100% and the radioactivity of the non-activation group as 0%, the relative value (proliferation rate, % of vehicle) of the radioactivity of each well to which test substance was added was calculated. The value of % of vehicle was incorporated into analysis software Prism (Version 5.0, GraphPad Software), the “Nonlinear Regression Log (inhibitor) vs Reaction Variable Inclination” was selected, and then sigmoid fitting with restrictions of Bottom=0 and Top=100 was performed to calculate 50% inhibitory concentration (IC50).

| SMILES | IC50 |
| --- | --- |
| N[C@@H](Cc1cccc(S(=O)(=O)N2CC(Oc3ccc(F)c(F)c3)(c3ccccc3)C2)c1)C(=O)O [Example 10, (S)-2-Amino-3-(3-((3-(3,4-difluorophenoxy)-3-phenylazetidin-1-yl)sulfonyl)phenyl)propanoic acid] | 21 nM |
| N[C@@H](Cc1cccc(S(=O)(=O)N2CC(Oc3cccnc3)(c3ccccc3)C2)c1)C(=O)O [Example 22] | 8.7 nM |
| N[C@@H](Cc1cccc(S(=O)(=O)N2CC(Oc3ccc(F)c(Cl)c3)(c3ccccc3)C2)c1)C(=O)O [Example 11] | 20 nM |
| N[C@@H](Cc1cccc(S(=O)(=O)N2CC(Oc3ccccc3)(c3nccs3)C2)c1)C(=O)O [Example 32] | 11 nM |
| N[C@@H](Cc1cccc(S(=O)(=O)N2CC(c3ccccc3-c3ccccc3)C2)c1)C(=O)O [Example 36] | 78 nM |
| N[C@@H](Cc1cccc(S(=O)(=O)N2CC(Oc3ccc(Br)cc3)(c3ccccc3)C2)c1)C(=O)O [Example 19] | 3 nM |
| N[C@@H](Cc1cccc(S(=O)(=O)N2CC(Oc3ccccc3)(C(F)(F)F)C2)c1)C(=O)O [Example 29] | 180 nM |
| N[C@@H](Cc1cccc(S(=O)(=O)N2CC(Oc3ccccc3F)(c3ccc(F)cc3)C2)c1)C(=O)O [Example 4, (S)-2-Amino-3-(3-((3-(2-fluorophenoxy)-3-(4-fluorophenyl)azetidin-1-yl)sulfonyl)phenyl)propanoic acid] | 2.6 nM |
| N[C@@H](Cc1cccc(S(=O)(=O)N2CC(Oc3ccccc3)(c3ccccc3)C2)c1)C(=O)O [Example 24] | 0.49 nM |
| N[C@@H](Cc1cccc(S(=O)(=O)N2CC(Oc3cccc(C(F)(F)F)c3)(c3ccccc3)C2)c1)C(=O)O [Example 21] | 2.5 nM |
| N[C@@H](Cc1cccc(S(=O)(=O)N2CC(Oc3cccc(F)c3)(c3ccc(F)cc3)C2)c1)C(=O)O [Example 1, (S)-2-Amino-3-(3-((3-(3-fluorophenoxy)-3-(4-fluorophenyl)azetidin-1-yl)sulfonyl)phenyl)propanoic acid] | 1.2 nM |
| NC(=O)c1cccc(OC2(c3ccccc3)CN(S(=O)(=O)c3cccc(C[C@H](N)C(=O)O)c3)C2)c1 [Example 15] | 2.9 nM |
| N[C@@H](Cc1cccc(S(=O)(=O)N2CC(Oc3cccc(F)c3)(c3ccccc3F)C2)c1)C(=O)O [Example 13] | 3 nM |
| N[C@@H](Cc1cccc(S(=O)(=O)N2CC(Oc3ccccc3)(C3CC3)C2)c1)C(=O)O [Example 31] | 210 nM |
| CC(C)(C)CC1(Oc2ccccc2)CN(S(=O)(=O)c2cccc(C[C@H](N)C(=O)O)c2)C1 [Example 25] | 92 nM |
| N#Cc1ccc(OC2(c3ccccc3)CN(S(=O)(=O)c3cccc(C[C@H](N)C(=O)O)c3)C2)cc1 [Example 40] | 2.2 nM |
| N[C@@H](Cc1cccc(S(=O)(=O)N2CC(Oc3ccc(C(F)(F)F)cc3)(c3ccccc3)C2)c1)C(=O)O [Example 12] | 9.6 nM |
| N[C@@H](Cc1cccc(S(=O)(=O)N2CC(Oc3ccccc3)(c3ccccn3)C2)c1)C(=O)O [Example 33] | 7.8 nM |
| NC(=O)c1ccc(OC2(c3ccccc3)CN(S(=O)(=O)c3cccc(C[C@H](N)C(=O)O)c3)C2)cc1 [Example 17, (S)-2-Amino-3-(3-((3-(4-carbamoylphenoxy)-3-phenylazetidin-1-yl)sulfonyl)phenyl)propanoic acid hydrochloride] | 1.2 nM |

System: mouse acute GVHD model
Experiment: Mouse acute GVHD model, IFN-γ concentration in plasma
Type: in vivo, mouse (BDF1 host, C57BL/6N donor)
Conditions: oral 1.5, 5, 15, or 50 mg/kg BID, Day 7
Protocol: FIG. 2 is a graph showing the effect of the compound of Example 89 in mouse acute GVHD models. The compound of Example 89 was orally administered at 1.5, 5, 15, or 50 mg/kg, BID. The vertical axis is the concentration of interferon gamma (sometimes abbreviated herein as IFN-γ or IFN-g) in blood on day 7 after elicitation in the model.
Effect of Test Substance in Mouse Acute GVHD Model
A mouse acute graft-versus-host disease (GVHD) model was generated in accordance with a previous report (Puliaev R et al. Differential requirement for IFN-gamma in CTL maturation in acute murine graft-versus-host disease. J Immunol. 173, 910-9 (2004)). Splenocytes were prepared from euthanized donor mice (C57BL/6N), suspended in PBS without hemolysis of erythrocytes, and administered to host mice, BDF1 mice, from the tail vein (the number of transfer cells was adjusted to be 7 to 8×10^7 cells/0.2 mL/mouse in every test, and matched between individuals within the same test). In the Normal group, 0.2 mL of PBS was administered in place of the cells. The test substance was crushed in an agate mortar, and then suspended in a 0.5% hydroxypropyl cellulose (HPC) solution to prepare a dosage solution. In the Vehicle group, 0.5% HPC was used as a dosage solution. To the host mice, the dosage solution was forcibly orally administered (0.2 mL/mouse) twice daily with a feeding needle from the morning of Day 0 (cell transfer) to the end of the experiment. The tail vein was cut without anesthesia on Day 7 and a small amount of blood was collected with a hematocrit tube (EDTA). Plasma was collected by centrifugation and IFN-γ concentration in plasma was measured with an αLISA kit (Mouse IFN-γ alphaLISA, PerkinElimer, AL501C). […] For the difference between the Normal group and the Vehicle group, comparison between two groups was performed by Student's t-test. The difference between the Vehicle group and the test substance administration group was analyzed by a parametric multiple-comparison test, Dunnett test.

| SMILES | effect on IFN-γ in plasma |
| --- | --- |
| CC(=O)O[C@@H](C)OC(=O)N[C@@H](Cc1cccc(S(=O)(=O)N2CC(Oc3cccc(F)c3)(c3ccccc3)C2)c1)C(=O)O [Example 89, (S)-2-((((R)-1-Acetoxyethoxy)carbonyl)amino)-3-(3-((3-(3-fluorophenoxy)-3-phenylazetidin-1-yl)sulfonyl)phenyl)propanoic acid] | inhibited IFN-γ in plasma in a dose-dependent manner |

Same assay, conditions: oral, twice daily from Day 0, plasma on Day 7, significant relative to the Vehicle group

| SMILES | effective dose, suppression of IFN-γ in plasma |
| --- | --- |
| CC(C)C(=O)O[C@@H](C)OC(=O)N[C@@H](Cc1cccc(S(=O)(=O)N2CC(Oc3ccc(F)cc3)(c3ccccc3)C2)c1)C(=O)O [Example 104, (S)-3-(3-((3-(4-Fluorophenoxy)-3-phenylazetidin-1-yl)sulfonyl)phenyl)-2-((((R)-1-(isobutyryloxy)ethoxy)carbonyl)amino)propanoic acid] | ≥ 15 mg/kg, BID |
| CC(=O)O[C@@H](C)OC(=O)N[C@@H](Cc1cccc(S(=O)(=O)N2CC(Oc3cccc(F)c3)(c3ccccc3)C2)c1)C(=O)O [Example 89, (S)-2-((((R)-1-Acetoxyethoxy)carbonyl)amino)-3-(3-((3-(3-fluorophenoxy)-3-phenylazetidin-1-yl)sulfonyl)phenyl)propanoic acid] | ≥ 1.5 mg/kg, BID |
